Test results as given in PMC7355430, “Imunofan—RDKVYR Peptide—Stimulates Skin Cell Proliferation and Promotes Tissue Repair” (Molecules, 2020).
Peptide text beside a SMILES is read from it.

How the values were obtained:
Stability in water = assay type: physicochemical; details: 1 mg/mL in sterile water, 37 °C, 24 h; HPLC Luna C18(2), PDA; 3 independent experiments, n=3 (Figure S1)
Protocol: A stock of IM peptide in sterile water (1 mg/mL) was prepared and divided into 200 µL portions. The sample tubes were stored in an incubator at 37 °C and analysis was performed at various time points (0, 1, 2, 3, 6, and 24 h). The analyses were performed by HPLC using a Luna C18(2) (5 µm, 100 Å 4.6 by 250 mm) column (Phenomenex, Torrance, CA, USA) and monitored by a PDA detector. Then, 0.01% TFA in H2O (A) and 0.01% TFA in 80% ACN in water (B) were used as solvents. A linear gradient of 5–100% B over 60 min and a flow rate of 1 mL/min was applied.
For calculations, peak areas were compared to a calibration curve calculated by LC solution Software (Shimadzu, Kyoto, Japan).

[1] = tested on: primary fibroblast cell cultures; assay: Transcript levels by qPCR; assay type: cell-based, human; details: 0.1 µg/mL, 48 h, 2^−ΔCt relative to Actb and Tbp (Figure 5)
Protocol: Cell stimulation was performed as previously described. Primary fibroblasts after the third passage and ASCs after the second passage were cultured in appropriate DMEM medium supplemented with 10% FBS for 24 h. Then, the medium was changed for DMEM with 5% FBS and 24-h incubation was performed. After another medium change for serum-free, cells were stimulated with IM peptide (0.1 µg/mL) for 48 h. Cell cultures deprived of FBS for 48 h were used as a control. After stimulation, the cells were trypsinized, collected, and centrifuged, and the pellet was kept frozen (−80 °C) for transcriptome analysis and transcript level analysis.
RNA was extracted using an RNeasy Mini kit (Qiagen, Cat. No. 74104, Hilden, Germany). RNA quality and concentrations were examined with a NanoDrop 2000 spectrophotometer. cDNA synthesis was performed in a reaction mixture containing 200 ng of RNA, 100 pmoles of oligo dT20, 4 µl of 5× reaction buffer (250 mM Tris-HCl, 375 mM KCl, 15 mM MgCl2, and 50 mM DTT), and 200 units of Maxima Reverse Transcriptase (ThermoScientific Bio. Cat. No. EP0742, Waltham, MA USA), at a final volume of 20 µl. PCR reactions were carried out on a LightCycler LC96 device (Roche, Basel, Switzerland), at a final volume of 10 µl containing 5 µl of FastStart Essential DNA Green Master (Roche, Cat. No. 06402712001, Basel, Switzerland), 1 µl of cDNA, and 0.25 µl each of forward and reverse primer (10 µM). The primer sequences are listed in Supplementary Table S4. The transcript levels were determined using the 2^−ΔCt method relative to Actb and Tbp.

[2] = tested on: MCF-7 breast cancer cells; assay: MTT proliferation test; assay type: cell-based; details: 24, 48 or 72 h, RPMI-1640 with 10 % FBS; Mann Whitney U-test (Figure S12)
Protocol: (§1) Cancer cell prolifertion assay. Cell proliferation was determined by the MTT method. MTT test measures enzymatic activity, which is a marker of viable cells. Drop in amount of formazan informs that there is less metabolically active cells as compared with control (taken as 100%); however, it might be caused by cell cycle arrest (stopped or slowed proliferation) and/or cell death (which also may happen after prolonged incubation with tested compounds). T47D or MCF-7 breast cancer cells were cultured in RPMI-1640 supplemented with 10 % fetal bovine serum and 1 % penicillin/streptomycin solution. Cells were seeded, at a density of 2 x 10^3 per well, in a 96-well plate and allowed to attach overnight. The medium was replaced with fresh medium supplemented with desired concentrations of each investigated compound for 24, 48 or 72 h. Before the end of treatment, 25 µL of MTT solution (4 mg per ml-^1) were added to each well. After 3 h of incubation, medium was removed, and formazan crystals were dissolved in 100 µL of DMSO. Absorbance was measured at 570 nm (with reference wavelength 660 nm) in a Victor microplate reader. Data were obtained from at least three independent experiments performed in triplicate.

T47D breast cancer cells = assay: MTT proliferation test; assay type: cell-based; details: 48 or 72 h, RPMI-1640 with 10 % FBS; Mann Whitney U-test (Figure S11)
Protocol: as §1

CC(C)[C@H](NC(=O)[C@H](CCCCN)NC(=O)[C@H](CC(=O)O)NC(=O)[C@@H](N)CCCNC(=N)N)C(=O)N[C@@H](Cc1ccc(O)cc1)C(=O)N[C@@H](CCCNC(=N)N)C(=O)O [IM, H-Arg-Asp-Lys-Val-Tyr-Arg-OH] (H-RDKVYR-OH)
signal from the IM peptide after incubation in water (Stability in water): no reduction of the signal
transcriptional response of POU5F1 ([1]; fibroblasts from all three donors): very strong induction
transcriptional response of TET1 ([1]; primary fibroblasts): high activation
transcriptional response of TET3 ([1]; primary fibroblasts): high activation
difference in proliferation from control (MTT) [2]: not statistically significant
difference in proliferation from control (MTT) (T47D breast cancer cells): not statistically significant
